In US20260083924A1, “CAPSULE INHALER FOR THE ADMINISTRATION OF A PHOSPHODIESTERASE-4 INHIBITOR” (CHIESI FARMACEUTICI S.P.A., priority 2022, published 2026):

Tests used:
[1] = In vitro dissolution test (RespiCell) on fine fraction collected by Fast Screening Impactor; assay type: physicochemical; conditions: FIG. 3; 800 μg dose, HR RS01 or UHR RS01 vs Nexthaler; PBS with 0.5% SDS, 37 °C
Description: In vitro dissolution tests were carried out to compare the performance of the Reference Products and the drug product of the invention at 800 μg, using RespiCell™ (EU registration No 006649570-0001), a vertical diffusion cell apparatus that comprises a 170 cm^3 reservoir filled with the dissolution media and a side arm of 10 cm length. The apparatus is composed of an upper part, the donor chamber, and a lower part, the receptor chamber, linked by a clamp and separated by a glass fiber filter, used as diffusion membrane, and sit horizontally in contact with the dissolution medium. The receptor chamber contains a magnetic stirrer inside it. Type A/E glass fiber filter of 76 mm diameter (PALL Corporation, Port Washington; NY, USA) were employed as diffusion membrane. The dissolution medium employed for the analysis was phosphate-buffer saline (PBS) with 0.5% of Sodium dodecyl sulfate (SDS). RespiCell™ was connected to a heating thermostat (Lauda eco silver E4, DE) set at 37±0.5° C. […] The amount of drug in the samples was assessed by HPLC. The data were expressed as percentage of the compound of formula (I) dissolved and 100% of the dissolution corresponded to the drug amount dissolved at the end of experiment. […] The difference factor (f1) is calculated as follows: […]

[2] = inhalation; multi-dose Nexthaler vs single-dose Aerolizer; cited from earlier work

SMILES: CS(=O)(=O)Nc1ccc(C(=O)O[C@@H](Cc2c(Cl)c[n+]([O-])cc2Cl)c2ccc(OC(F)F)c(OCC3CC3)c2)cc1OCC1CC1 [compound of formula (I), 3,5-dichloro-4-[(2S)-2-[3-(cyclopropylmethoxy)-4-(difluoromethoxy)phenyl]-2-{[3-(cyclopropylmethoxy)-4-(methanesulfonamido)benzoyl]oxy}ethyl]pyridinel-oxide]
- amount of the compound of formula (I) dissolved, higher in comparison to the Reference Product [1]: 7-20%
- weighted AUC systemic bioavailability, higher via Nexthaler than via Aerolizer [2]: about 30%
